This note sets out measurements from US12459922B2 (Gilead Sciences, Inc., priority 2022, dated 2025).

For one experiment, the system named is endogenous cellular STAT1 (phosphorylated at Tyr701) in NCI-H1373 cells. Kind of experiment: Phospho-STAT1 (Tyr701) LANCE Ultra TR-FRET Detection Assay. Conditions: 48 hours, phospho-STAT1 (Tyr701) induction, read-out: NH1373 pSTAT1 EC50. Type of experiment: cell-based. (In TR-FRET formats the signal depends on donor and acceptor labels being close together.)
`Cc1cnc(-c2cc3ccn(C[C@@H]4CCC[C@H](Nc5cn[nH]c(=O)c5C(F)(F)F)C4)c(=O)c3cc2F)nc1` [Example 242]: the EC50 – broadly, the concentration needed to bring the measured effect to its halfway point – came out at 9.44 nM. Still for that read-out and setting: the figure for `C[C@@H](CCCn1ccc2cc(-c3ncc(C(F)(F)F)c(N)n3)c(F)cc2c1=O)Nc1cn[nH]c(=O)c1C(F)(F)F` [Example 128, (S)-6-(4-amino-5-(trifluoromethyl)pyrimidin-2-yl)-7-fluoro-2-(4-((6-oxo-5-(trifluoromethyl)-1,6-dihydropyridazin-4-yl)amino)pentyl)isoquinolin-1(2H)-one] is 16.7 nM.

The same experiment, now with this note: Homo sapiens, NCI-H1373, 48 h, phospho-STAT1 (Tyr701) induction, read-out: NH1373 pSTAT1 EC50.
On to `Nc1nc(-c2cc3ccn(C[C@@H]4CCC[C@H](Nc5cn[nH]c(=O)c5C(F)(F)F)C4)c(=O)c3cc2F)ccc1C(F)F` [Example 269, 6-(6-amino-5-(difluoromethyl)pyridin-2-yl)-7-fluoro-2-(((1R,3S)-3-((6-oxo-5-(trifluoromethyl)-1,6-dihydropyridazin-4-yl)amino)cyclohexyl)methyl)isoquinolin-1(2H)-one], for which the EC50 is 54.3 nM. Same read-out and setting: the figure for `Nc1nc(-c2cc3ccn(CC[C@H]4CCC[C@@H]4Nc4cn[nH]c(=O)c4C(F)(F)F)c(=O)c3cc2F)ncc1C(F)(F)F` [Example 178, 6-(4-amino-5-(trifluoromethyl)pyrimidin-2-yl)-7-fluoro-2-(2-((1R,2S)-2-((6-oxo-5-(trifluoromethyl)-1,6-dihydropyridazin-4-yl)amino)cyclopentyl)ethyl)isoquinolin-1(2H)-one] is 1.8 nM. `Cc1cn(C[C@@H]2CCC[C@H](Nc3cn[nH]c(=O)c3C(F)(F)F)C2)c(=O)c2cc(F)c(-c3ncc(C(F)(F)F)cn3)cc12` [Example 485, 7-fluoro-4-methyl-2-(((1R,3S)-3-((6-oxo-5-(trifluoromethyl)-1,6-dihydropyridazin-4-yl)amino)cyclohexyl)methyl)-6-(5-(trifluoromethyl)pyrimidin-2-yl)isoquinolin-1(2H)-one]: the concentration giving a half-maximal response (EC50) is 5.46 nM. Still for that read-out and setting: the value for `COc1cnc(-c2cc3ccn(C[C@@H]4CCC[C@H](Nc5cn[nH]c(=O)c5C(F)(F)F)C4)c(=O)c3cc2F)nc1N` [Example 255, 6-(4-amino-5-methoxypyrimidin-2-yl)-7-fluoro-2-(((1R,3S)-3-((6-oxo-5-(trifluoromethyl)-1,6-dihydropyridazin-4-yl)amino)cyclohexyl)methyl)isoquinolin-1(2H)-one] was 9.1 nM. On the same count and under the same terms, the value for `C[C@@H](CCCn1cnc2cc(-c3ncc(C(F)(F)F)c(N4CC(O)C4)n3)c(F)cc2c1=O)Nc1cn[nH]c(=O)c1C(F)(F)F` [Example 124, (S)-6-fluoro-7-(4-(3-hydroxyazetidin-1-yl)-5-(trifluoromethyl)pyrimidin-2-yl)-3-(4-((6-oxo-5-(trifluoromethyl)-1,6-dihydropyridazin-4-yl)amino)pentyl)quinazolin-4(3H)-one] was 11.4 nM.

Regarding `COc1cnc(-c2cc3ccn(C/C=C/[C@H](C)Nc4cn[nH]c(=O)c4C(F)(F)F)c(=O)c3cc2F)nc1N` [Example 134, (S,E)-6-(4-amino-5-methoxypyrimidin-2-yl)-7-fluoro-2-(4-((6-oxo-5-(trifluoromethyl)-1,6-dihydropyridazin-4-yl)amino)pent-2-en-1-yl)isoquinolin-1(2H)-one], the EC50 stood at 5.19 nM.

For the compound `COc1cnc(-c2cc3ccn(CCC[C@H](COC(F)F)Nc4cn[nH]c(=O)c4C(F)(F)F)c(=O)c3cc2F)nc1N` [Example 370, (R)-6-(4-amino-5-methoxypyrimidin-2-yl)-2-(5-(difluoromethoxy)-4-((6-oxo-5-(trifluoromethyl)-1,6-dihydropyridazin-4-yl)amino)pentyl)-7-fluoroisoquinolin-1(2H)-one], the EC50 turned out to be 8.33 nM.

For the compound `Cc1cnc(-c2cc3ncn(CCC[C@H](C)Nc4cn[nH]c(=O)c4C(F)(F)F)c(=O)c3cc2F)nc1` [Example 95, (S)-6-fluoro-7-(5-methylpyrimidin-2-yl)-3-(4-((6-oxo-5-(trifluoromethyl)-1,6-dihydropyridazin-4-yl)amino)pentyl)quinazolin-4(3H)-one], the EC50 is 97.1 nM.

Consider `COc1cnc(-c2cc3ccn(CCC[C@H](C)Nc4cn[nH]c(=O)c4C(F)(F)F)c(=O)c3cc2F)nc1NC1CC1` [Example 216, (S)-6-(4-(cyclopropylamino)-5-methoxypyrimidin-2-yl)-7-fluoro-2-(4-((6-oxo-5-(trifluoromethyl)-1,6-dihydropyridazin-4-yl)amino)pentyl)isoquinolin-1(2H)-one], for which the EC50 was determined as 39.3 nM. Same read-out and setting: the value for `C[C@@H](CCCn1cnc2cc(-c3ncc(C#N)c(N)n3)c(F)cc2c1=O)Nc1cn[nH]c(=O)c1C(F)(F)F` [Example 125, (S)-4-amino-2-(6-fluoro-4-oxo-3-(4-((6-oxo-5-(trifluoromethyl)-1,6-dihydropyridazin-4-yl)amino)pentyl)-3,4-dihydroquinazolin-7-yl)pyrimidine-5-carbonitrile] was 84.8 nM.

On to `O=c1[nH]ncc(N[C@H]2CCC[C@@H](Cn3ccc4cc(-c5ncc(C(F)F)cn5)c(F)c(F)c4c3=O)C2)c1C(F)(F)F` [Example 233], for which the concentration for a half-maximal effect (EC50) came to 1.95 nM. Same read-out and setting: the figure for `[2H]C([2H])([2H])OC[C@@H](CCCn1cnc2cc(-c3ncc(C(F)F)cn3)c(F)cc2c1=O)Nc1cn[nH]c(=O)c1C(F)(F)F` [Example 431] is 6.42 nM; for `O=c1[nH]ncc(N[C@H](CCCn2ccc3cc(-c4cnc(N5CCOCC5)cn4)c(F)cc3c2=O)COC(F)F)c1C(F)(F)F` [Example 422, (R)-2-(5-(difluoromethoxy)-4-((6-oxo-5-(trifluoromethyl)-1,6-dihydropyridazin-4-yl)amino)pentyl)-7-fluoro-6-(5-morpholinopyrazin-2-yl)isoquinolin-1(2H)-one] it is 87.9 nM; for `O=c1[nH]ncc(N[C@@H]2CC[C@H](Cn3ccc4cc(-c5ncc(C(F)(F)F)cn5)c(F)cc4c3=O)C2)c1C(F)(F)F` [Example 446, 7-fluoro-2-(((1S,3R)-3-((6-oxo-5-(trifluoromethyl)-1,6-dihydropyridazin-4-yl)amino)cyclopentyl)methyl)-6-(5-(trifluoromethyl)pyrimidin-2-yl)isoquinolin-1(2H)-one] it is 270 nM.

`O=c1[nH]ncc(NCCCCn2ccc3cc(-c4ncc(C(F)(F)F)cn4)c(F)c(F)c3c2=O)c1C(F)(F)F` [Example 85, 7,8-difluoro-2-(4-((6-oxo-5-(trifluoromethyl)-1,6-dihydropyridazin-4-yl)amino)butyl)-6-(5-(trifluoromethyl)pyrimidin-2-yl)isoquinolin-1(2H)-one]: the 50% effective concentration (EC50) came out at 113 nM. Still for that read-out and setting: the figure for `[2H]C([2H])([2H])OC[C@@H](CCCn1cnc2cc(-c3ncc(C(F)F)c(N)n3)c(F)cc2c1=O)Nc1cn[nH]c(=O)c1C(F)(F)F` [Example 433] is 15.6 nM; for `CC[C@@H](CCCn1ccc2cc(-c3ncc(Cl)c(N)n3)c(F)c(F)c2c1=O)Nc1cn[nH]c(=O)c1C(F)(F)F` [Example 359, (S)-6-(4-amino-5-chloropyrimidin-2-yl)-7,8-difluoro-2-(4-((6-oxo-5-(trifluoromethyl)-1,6-dihydropyridazin-4-yl)amino)hexyl)isoquinolin-1(2H)-one] it is 1.15 nM. Take `O=c1[nH]ncc(N[C@H](CCCn2cnc3cc(-c4ncc(C(F)F)cn4)c(F)cc3c2=O)COC(F)F)c1C(F)(F)F` [Example 384, (R)-3-(5-(difluoromethoxy)-4-((6-oxo-5-(trifluoromethyl)-1,6-dihydropyridazin-4-yl)amino)pentyl)-7-(5-(difluoromethyl)pyrimidin-2-yl)-6-fluoroquinazolin-4(3H)-one]: the half-maximal effective concentration (EC50) is 2.41 nM. Same read-out and setting: the figure for `O=c1[nH]ncc(N[C@H]2CCC[C@@H](Cn3cc(F)c4cc(-c5ncc(C(F)F)cn5)c(F)cc4c3=O)C2)c1C(F)(F)F` [Example 482, 6-(5-(difluoromethyl)pyrimidin-2-yl)-4,7-difluoro-2-(((1R,3S)-3-((6-oxo-5-(trifluoromethyl)-1,6-dihydropyridazin-4-yl)amino)cyclohexyl)methyl)isoquinolin-1(2H)-one] is 1.94 nM. On the same count and under the same terms, the figure for `C[C@@H](CCCn1ccc2cc(-c3ncc(C(F)F)c(N[C@@H]4C[C@@H]4F)n3)c(F)cc2c1=O)Nc1cn[nH]c(=O)c1C(F)(F)F` [Example 223, 6-(5-(difluoromethyl)-4-(((1R,2S)-2-fluorocyclopropyl)amino)pyrimidin-2-yl)-7-fluoro-2-((S)-4-((6-oxo-5-(trifluoromethyl)-1,6-dihydropyridazin-4-yl)amino)pentyl)isoquinolin-1(2H)-one] is 33.3 nM; for `O=c1[nH]ncc(N[C@H]2CCC[C@@H](Cn3ccc4cc(-c5cnc(C6CC6)cn5)c(F)cc4c3=O)C2)c1C(F)(F)F` [Example 270, 6-(5-cyclopropylpyrazin-2-yl)-7-fluoro-2-(((1R,3S)-3-((6-oxo-5-(trifluoromethyl)-1,6-dihydropyridazin-4-yl)amino)cyclohexyl)methyl)isoquinolin-1(2H)-one] it is 149 nM.

With `Nc1nc(-c2cc3ncn(C[C@@H]4CCC[C@H](Nc5cn[nH]c(=O)c5C(F)(F)F)C4)c(=O)c3cc2F)ncc1OC(F)F` [Example 265, 7-(4-amino-5-(difluoromethoxy)pyrimidin-2-yl)-6-fluoro-3-(((1R,3S)-3-((6-oxo-5-(trifluoromethyl)-1,6-dihydropyridazin-4-yl)amino)cyclohexyl)methyl)quinazolin-4(3H)-one], the EC50 amounted to 52.3 nM. On the same count and under the same terms, the figure for `CC[C@@H](CCCn1ccc2cc(-c3ncc(C(F)F)cn3)c(F)c(F)c2c1=O)Nc1cn[nH]c(=O)c1C(F)(F)F` [Example 355, (S)-6-(5-(difluoromethyl)pyrimidin-2-yl)-7,8-difluoro-2-(4-((6-oxo-5-(trifluoromethyl)-1,6-dihydropyridazin-4-yl)amino)hexyl)isoquinolin-1(2H)-one] is 11.4 nM. Regarding `C[C@@H](CC(O)Cn1ccc2cc(-c3ncc(C(F)(F)F)cn3)c(F)cc2c1=O)Nc1cn[nH]c(=O)c1C(F)(F)F` (stereo partly drawn) [Example 478, 7-fluoro-2-[(4S)-2-hydroxy-4-[[6-oxo-5-(trifluoromethyl)-1H-pyridazin-4-yl]amino]pentyl]-6-[5-(trifluoromethyl)pyrimidin-2-yl]isoquinolin-1-one], the EC50 stood at 5.25 nM.
